The record followed here is patent US20260306434A1, “VERY LONG CHAIN FATTY ACIDS FOR USE IN MINERALIZATION” (Epax Norway AS, priority 2023, published 2026).

The subject of data set [1] is hFOB 1.19 human foetal osteoblasts. As to the kind of experiment: Fatty acid composition of hFOB cells (Ex. 4). It is filed as cell-based. The following applies: 2 μM; 7 days. How it is done:
Total lipids were extracted from homogenised tissue or sonicated extracts of cells (for Ex. 4) following the method previously described by Folch et al., For both skin tissue and whole-body analyses, pooled samples from each tank (n=10 per tank, n=30 per diet group) were analysed for lipid composition. For cells, three individual cell culture flasks per treatment group were analysed. The fatty acid composition was analysed using the method described by Mason and Waller.
Methyl esters were separated and analysed in a GC (Hewlett Packard 6890; HP) with a split injector using an SGE BPX70 capillary column (length, 60 m; internal diameter, 0.25 mm; and film thickness, 0.25 um; SGE Analytical Science) flame ionsation detector, and HP chem Station software. Helium was used as the carrier gas, and both the injector and detector temperatures were 280° C. The oven temperature started at 50° C. for 1.2 min and then increased […] to 170° C. at a rate of 4° C./min, followed by 200° C. at a rate of 0.5° C./min, and finally 280° C. at a rate of 10° C./min. The individual fatty acid peaks were identified by comparing the retention times with validated standards; GLC reference 463 and 85 (Nu-chek Prep, Elysian, MN). The absolute amount of fatty acid per gram of tissue or cells was calculated using 23:0 methyl ester as an internal standard (IS). Unidentified peaks were not included in the total fatty acid calculation.
The VLC-PUFA composition of cells and whole-body extracts was analysed using a Scion TQ 8300 GC-MS/MS with a split/splitless injector (splitless 1 min) with a Restek Rxi-5 ms capillary column (length, 30 m; internal diameter, 0.25 mm; and film thickness, […]). Hydrogen was used as the carrier gas, with split-injection and detector temperatures of 250° C. and 270° C., respectively. The oven temperature started at 90° C. for 1.5 min and was ramped up to 220° C. at a rate of 30° C./min, then 275° C. at a rate of 1.21° C./min, and finally 310° C. at a rate of 6.5° C./min. The instrument was run in MRM mode with 79.1-77.1 and 79-55.1 as transitions for VLC PUFAs and 143.1-55.1 for C23:0. The response factor for DHA (relative to C23:0) was calculated using standard solutions of known concentrations of DHA and C23:0. As no standards for VLC fatty acids were available for the VLC-PUFAs, the same response factor as for DHA was assumed and used to calculate concentrations of VLC-PUFAs.
A human foetal osteoblast cell line (hFOB 1.19, ATCC, CRL-11372) was used in the experiments. Cells were cultured according to the manufacturer's instructions. Basal medium comprised a 1:1 mixture of Ham's F12 Medium Dulbecco's Modified Eagle's Medium with 2.5 mM L-glutamine (without phenol red) (Sigma-Aldrich, Darmstadt, Germany). Complete growth medium was prepared using 0.3 mg/mL G418 (Sigma-Aldrich, Darmstadt, Germany) supplemented with 10% foetal bovine serum (T7524, Sigma-Aldrich, Darmstadt, Germany). Cells were incubated at 34° C., with 5% C02 (In-Vitro Cell NU-8600E, NUAIRE, Minnesota, U.S.) and sub-cultured at approximately 80% confluency at a ratio of 1:4. Growth medium was renewed every 2-3 days. Cells cultured for differentiation were supplemented with osteogenic factors, ascorbic acid (100 μg/mL; A8960, Sigma-Aldrich, Darmstadt, Germany) and β-glycerophosphate (10 mM; G9422, Sigma-Aldrich, Darmstadt, Germany). Once the cells reached confluency, the temperature was increased to 37° C. to stop proliferation and induce differentiation. The osteogenic media was renewed every 2-3 days.
Fatty acids were added to the growth media in the form of their sodium salts bound to bovine serum albumin (BSA, Sigma-Aldrich, Darmstadt, Germany; 2.7:1 molar ratio). The pH was adjusted to 7 using NH4OH. n-3 VLC-PUFA (the VLC-PUFA concentrate of Table 3.1, right column) and DHA (Sigma-Aldrich, Darmstadt, Germany) concentrates were prepared as 1 and 8 mM stocks, respectively, and were added to the media at concentrations of 1 and 2 μM. […]

Data set [2] concerns primary Atlantic salmon keratocytes. Briefly: Cell migration of primary Atlantic salmon keratocytes from scales (Ex. 2). It is filed as cell-based. The following applies: 25 ng/mL; 24 h; vs control (P=0.0145). How it is done: In these cell culture experiments fatty acids were added to growth media in the form of their sodium salts bound to bovine serum albumin (BSA; 2.7:1 molar ratio). The pH was adjusted to 7 using NH4OH. DHA was purchased from Sigma (Sigma Aldrich, Darmstadt, Germany). The n-3 VLCPUFA 26:6 n-3 and VLC-Conc2 (Table 1.1) were both prepared as 1-mM stock solutions and DHA was prepared as an 8-mM stock solution. All fatty acid solutions were stored at −80° C.
Growth medium (GM) was prepared as L-15 (11544436, Fischer Scientific) supplemented with 5% FBS (F2442, Sigma-Aldrich), 1% anti/anti (A5955, Sigma-Aldrich; 15240062 Fischer Scientific), and 1% HEPES (H0887, Sigma-Aldrich). The test substrates added were either 25 ng/mL fibroblast growth factor (FGF) (106096-93-9, Sigma-Aldrich), 10 μM VLCPUFA (26:6 n-3), or 20 μM VLCPUFA (26:6 n-3). Controls were left untreated. […]
The day after isolation, all wells were inspected under a microscope to determine the migration potential of the scales. All scales with migration were counted to determine the immediate effect of the VLCPUFA on cell migration. […] The number of scales with cell migration was counted and divided by the number of attached scales to calculate the percentage of scales with cell migration, as attachment is a prerequisite for cell migration. […]
For histology, five fish from each tank, giving a total of 15 fish per treatment, were analysed. […]

Turning to `CC/C=C\C/C=C\C/C=C\C/C=C\C/C=C\C/C=C\CCC(=O)O` [DHA, docosahexaenoic acid], in data set [1], the “14:0, mean” value is 38.3 μg/g sample; the “16:0, mean” value was found to be 648.5 μg/g sample; the “16:2 n-6, mean” value stood at 52.5 μg/g sample; the “17:0, mean” value stood at 12.5 μg/g sample. In data set [1], the “18:0, mean” value was found to be 315.8 μg/g sample; the “18:1 n-7, mean” value amounted to 135.0 μg/g sample; the “18:1 n-9, mean” value came to 554.6 μg/g sample; the “18:2 n-6, mean” value is listed as 40.6 μg/g sample. Further, in data set [1], the “18:3 n-6, mean” value came out at 11.5 μg/g sample; the “20:0, mean” value came out at 10.1 μg/g sample; the “20:1 n-9, mean” value is 16.2 μg/g sample; the “20:1 n-11, mean” value turned out to be 7.1 μg/g sample. Moreover, in data set [1], the “20:2 n-6, mean” value is 18.8 μg/g sample; the “20:3 n-6, mean” value is 20.6 μg/g sample; the “20:4 n-3, mean” value was determined as 8.8 μg/g sample; the “20:4 n-6, mean” value was found to be 106.7 μg/g sample. For the same compound, in data set [1], the “20:5 n-3, mean” value came out at 19.3ab μg/g sample; the “22:0, mean” value amounted to 7.3 μg/g sample; the “22:4 n-6, mean” value was determined as 13.7 μg/g sample; the “22:5 n-3, mean” value was found to be 26.2 μg/g sample. Moreover, in data set [1], the “24:1 n-9, mean” value was 3.9 μg/g sample; the “24:5 n-3, mean” value amounted to 76.5 μg/g sample; the “24:6 n-3, mean” value came out at 56.5 μg/g sample; the “26:5 n-3, mean” value is recorded as 1.7ab μg/g sample. Besides, in data set [1], the “26:6 n-3, mean” value stood at 3.3ab μg/g sample; the “28:8 n-3, mean” value is reported as 0.0a μg/g sample; the “SUM EPA/DHA, mean” value is reported as 115.6b μg/g sample; the “SUM FA, mean” value stood at 2670.3 μg/g sample. Besides, in data set [1], the “Sum of MUFAs, mean” value came to 871.5 μg/g sample; the “Sum of SFAs, mean” value is reported as 1045.0 μg/g sample; the “Sum of n-3 PUFAs, mean” value was determined as 164.0ab μg/g sample; the “Sum of n-6 PUFAs, mean” value is 226.2 μg/g sample. Besides, the “Sum others, mean” value in data set [1] is listed as 168.3 μg/g sample.

Consider fibroblast growth factor [FGF], for which the “scales with cell migration” value in data set [2] is recorded as “significant difference”.
